{"source": "patent US20240216410A1", "about": "“METHODS AND COMPOSITIONS FOR TREATING CANCER THERAPY-INDUCED NEUTROPENIC FEVER AND/OR GVHD” (BOARD OF REGENTS, THE UNIVERSITY OF TEXAS SYSTEM, priority 2021, published 2024)", "system": "neutrophils and dendritic cells in the colon", "assay": "Murine GVHD model: colonic infiltration by neutrophils and dendritic cells", "format": "in vivo", "conditions": "meropenem-treated mice with GVHD", "excerpt": "Altogether, these findings indicate that, in some cases, meropenem treatment leads to compromise of the colonic mucus layer, increased bacterial translocation and an aggravated inflammatory response.\nHistological and immunohistochemistry analysis. […] Pathology scores were quantified by a blinded pathologist. […] Sections were imaged using an APERIO® AT2.\nLamina propria hematopoietic cell dissociation. Murine colons were isolated, dissected longitudinally and then on a shaker in 2% fetal bovine serum in PBS with 1 mM DL-dithiothreitol (Bioworld) at 37 °C for 20 min and subsequently incubated with 1.3 mM EDTA at 37° C. for 40 min. They were rinsed twice and digested with 0.3 mg/ml of type IV collagenase (C5138, SIGMA-ALDRICH®) at 37 °C for 45 min, homogenized, filtered, and washed.\nFlow cytometric analysis. Monoclonal antibodies conjugated with fluorescein isothiocynate, phycoerythrin, phycoerythrin-Cy7, peridinin-chlorophyll protein complexes, allophycocyanin, or allophycocyanin-Cy7 were purchased from Tonbo Biosciences (San Diego, CA), EBIOSCIENCE™ (San Diego, CA), or BIOLEGEND® (San Diego, CA.). […] In flow cytometric analysis, at least 100,000 live samples were analyzed using BD LSRFORTESSA™ X-20 (BD Biosciences) and FlowJo software (Trec Star, OR). […]"}
{"smiles": "C[C@@H](O)[C@H]1C(=O)N2C(C(=O)O)=C(S[C@@H]3CN[C@H](C(=O)N(C)C)C3)[C@H](C)[C@H]12", "note": "[meropenem]", "values": [{"measurement": "colonic tissue infiltration by neutrophils and dendritic cells", "value": "marked colonic tissue infiltration by neutrophils and dendritic cells"}]}
